Assay results published in patent US9012431B2, “Boron-containing small molecules as anti-inflammatory agents” (Anacor Pharmaceuticals, Inc., priority 2008, dated 2015).
Read-outs that look alike come from different tables or passages of the source.

Legend:
PDE3 Cat = tested on: T1, PDE3 Cat; assay: PDE3 inhibition; format: biochemical
T1 construct: Recombinant human PDE enzymes were expressed in a baculoviral system.; PDE isoforms tested include

PDE4Cat = tested on: T2, PDE4Cat; assay: PDE4Cat inhibition; format: biochemical; settings: standard: Rolipram
T2 construct: Recombinant human PDE enzymes were expressed in a baculoviral system.

PDE5 = PDE5 (Homo sapiens, UniProt O76074); assay: PDE5 inhibition; format: biochemical
IL-2 = assay: Cytokine assay, IL-2 release from PBMC; format: cell-based; settings: human PBMC, 20 ug/mL PHA, supernatant at 24 hours
Outline: (§1)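 Inhibition of cytokine release was assessed in thawed human PBMC cultured in RPMI 1640 plus 10% FBS, with compound tested at four concentrations from 0.01 to 10 μM.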

PDE7A1 = target: T3, PDE7A1 (Homo sapiens, UniProt Q13946); assay: PDE7 inhibition; format: biochemical
T3 construct: made in house; host or cells: baculoviral expression system

female CBA/J mice = assay: Local lymph node assay (hypersensitivity response); format: in vivo
IFN-γ = assay: Cytokine assay, IFN-γ release from PBMC; format: cell-based; settings: human PBMC, 20 ug/mL PHA, supernatant at 24 hours
Outline: as §1

[1] = tested on: CD-1 (Crl.) derived male mice; assay: Phorbol Ester Induced Mouse Ear Edema Model; format: in vivo; settings: topical, 6 h, 1 mg/ear × 2 topical, vehicle not given, ear swelling 6 hours after PMA
Outline: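 Test compounds in acetone:ethanol 1:1 were applied topically to both ears 30 min before and 15 min after PMA challenge; dexamethasone positive control followed the same schedule. Ear thickness was measured by micrometer 6 h after PMA, and percent inhibition was calculated from ear-thickness increase versus vehicle controls.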

TNF-α = assay: Cytokine assay, TNF-α release from PBMC; format: cell-based; settings: Homo sapiens, PBMC, 24 h, 1 μg/mL LPS, supernatant at 24 hours
Outline: as §1

IL-10 = assay: Cytokine assay, IL-10 release from PBMC; format: cell-based; settings: human PBMC, 20 ug/mL PHA, supernatant at 48 hours
Outline: as §1

T3 sequence (Q13946 whole entry): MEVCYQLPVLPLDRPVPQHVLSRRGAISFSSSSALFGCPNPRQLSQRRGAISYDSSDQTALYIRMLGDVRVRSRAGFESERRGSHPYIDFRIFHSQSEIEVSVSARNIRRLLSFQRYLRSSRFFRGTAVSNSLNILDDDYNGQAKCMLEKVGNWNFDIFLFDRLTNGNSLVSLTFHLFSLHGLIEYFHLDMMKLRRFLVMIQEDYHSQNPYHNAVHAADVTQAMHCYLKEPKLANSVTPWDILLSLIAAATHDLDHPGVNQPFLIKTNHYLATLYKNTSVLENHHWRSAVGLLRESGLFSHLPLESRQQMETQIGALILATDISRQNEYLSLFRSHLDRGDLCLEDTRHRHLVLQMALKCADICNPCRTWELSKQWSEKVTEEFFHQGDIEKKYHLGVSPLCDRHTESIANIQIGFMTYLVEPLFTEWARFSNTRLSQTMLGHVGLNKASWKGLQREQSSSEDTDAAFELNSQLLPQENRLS

N#Cc1ccc(Oc2ccc3c(c2)COB3O)cc1 [C17, 5-(4-cyanophenoxy)-1-hydroxy-1,3-dihydro-2,1-benzoxaborole]
inhibition of PDE3 (PDE3 Cat): does not significantly inhibit | IC50 (PDE3 Cat; standard: Cilostazol): 1000 to 10000 nM | IC50 (PDE4Cat): < 1000 nM | inhibition of PDE5 (PDE5): does not significantly inhibit | IC50 (IL-2): < 1000 nM | IC50 (PDE7A1; read-out: PDE7 IC50): 730 nM | IC50 (PDE7A1; standard: BRL-50481, read-out: IC50 PDE7A1): < 1000 nM | skin sensitizing activity (female CBA/J mice; mouse, in vivo): not considered to have skin sensitizing activity | stimulation index (female CBA/J mice; topical 1%, 5%, and 10% solution in acetone/ethanol (50:50, v/v)): < 3 | IC50 (IFN-γ): < 1000 nM | inhibition in vivo at 1 mg [1]: 60 to 90% | IC50 (TNF-α): < 1000 nM | IC50 (IL-10): 4000 to 10000 nM
